Measured values taken from the NIST ThermoML archive (doi:10.1016/j.jct.2017.03.026).
“And” between values parts separate entries of the source, which are not always exact repeats. Identical values can stand only once.

Experiment: molar heat capacity at constant pressure
Conditions: 101.33 kPa, Crystal, Small (less than 1 g) adiabatic calorimetry

O.O.O.O.O.O=S(=O)([O-])[O-].[Cu+2] [copper(II) sulfate pentahydrate]
Conditions	molar heat capacity at constant pressure
101.73 K	117.59 J/K/mol
101.86 K	118.59 J/K/mol
102.08 K	117.97 J/K/mol
102.79 K	118.7 J/K/mol
102.91 K	119.62 J/K/mol
103.83 K	120.63 J/K/mol
103.84 K	119.78 J/K/mol
103.89 K	120.08 J/K/mol
103.96 K	120.8 J/K/mol
104.14 K	120.09 J/K/mol
104.36 K	121.29 J/K/mol
104.89 K	120.9 J/K/mol
105.01 K	121.85 J/K/mol
105.93 K	122.01 J/K/mol
106.06 K	122.97 J/K/mol
106.2 K	122.39 J/K/mol
106.46 K	123.36 J/K/mol
106.97 K	123.24 J/K/mol
106.98 K	123.14 J/K/mol
107.12 K	123.92 J/K/mol
107.46 K	124.56 J/K/mol
108.03 K	124.25 J/K/mol
108.17 K	125.23 J/K/mol
108.27 K	124.44 J/K/mol
109.08 K	125.36 J/K/mol
109.1 K	126.13 J/K/mol
109.23 K	126.17 J/K/mol
110 K	126.2 J/K/mol
110.06 K	126.42 J/K/mol
110.13 K	126.46 J/K/mol
110.29 K	127.26 J/K/mol
110.33 K	126.54 J/K/mol
110.57 K	127.78 J/K/mol
111.18 K	127.44 J/K/mol
111.37 K	128.56 J/K/mol
111.74 K	128.74 J/K/mol
112.23 K	128.52 J/K/mol
112.4 K	128.7 J/K/mol
112.43 K	129.57 J/K/mol
113.16 K	129.6 J/K/mol
113.29 K	129.54 J/K/mol
113.49 K	130.69 J/K/mol
113.69 K	130.98 J/K/mol
114.34 K	130.68 J/K/mol
114.38 K	131.41 J/K/mol
114.47 K	130.81 J/K/mol
114.56 K	131.62 J/K/mol
115.39 K	131.78 J/K/mol
115.62 K	132.81 J/K/mol
116.25 K	132.9 J/K/mol
116.44 K	132.81 J/K/mol
116.54 K	133.18 J/K/mol
116.68 K	133.94 J/K/mol
116.81 K	134.01 J/K/mol
117.02 K	134.2 J/K/mol
117.5 K	133.84 J/K/mol
117.75 K	134.93 J/K/mol
118.55 K	134.96 J/K/mol
118.62 K	135 J/K/mol
118.81 K	136.22 J/K/mol
119.36 K	135.88 J/K/mol
119.63 K	136.14 J/K/mol
119.67 K	137.03 J/K/mol
119.88 K	137.17 J/K/mol
119.93 K	137.32 J/K/mol
120 K	136.3 J/K/mol
120.69 K	136.94 J/K/mol and 137.14 J/K/mol
120.95 K	138.19 J/K/mol
121.74 K	138.15 J/K/mol
122.02 K	139.11 J/K/mol
122.32 K	139.58 J/K/mol
122.46 K	138.97 J/K/mol
122.8 K	139.17 J/K/mol and 139.26 J/K/mol
123.07 K	140.4 J/K/mol
123.09 K	140.26 J/K/mol
123.86 K	140.26 J/K/mol
124.16 K	141.38 J/K/mol
124.88 K	141.31 J/K/mol
124.91 K	141.44 J/K/mol
124.97 K	142.22 J/K/mol
125.23 K	142.7 J/K/mol
125.57 K	142.11 J/K/mol
125.97 K	142.63 J/K/mol
126.2 K	143.67 J/K/mol
126.3 K	143.66 J/K/mol
126.97 K	143.36 J/K/mol
127.03 K	143.46 J/K/mol
127.37 K	144.66 J/K/mol
127.62 K	145 J/K/mol
128.08 K	144.35 J/K/mol
128.47 K	145.88 J/K/mol
128.7 K	145.15 J/K/mol
129.05 K	145.44 J/K/mol
129.14 K	145.37 J/K/mol
129.38 K	146.91 J/K/mol
129.54 K	146.79 J/K/mol
130 K	146.3 J/K/mol
130.2 K	146.58 J/K/mol
130.3 K	147.58 J/K/mol
130.62 K	147.67 J/K/mol
131.13 K	147.52 J/K/mol
131.25 K	147.55 J/K/mol
131.69 K	149.05 J/K/mol
131.82 K	148.2 J/K/mol
132.31 K	148.61 J/K/mol
132.53 K	150.01 J/K/mol
132.77 K	150.08 J/K/mol
132.95 K	150.13 J/K/mol
133.22 K	149.57 J/K/mol
133.37 K	149.93 J/K/mol
133.85 K	151.35 J/K/mol
134.43 K	150.8 J/K/mol
134.92 K	152.13 J/K/mol
134.93 K	151.23 J/K/mol
135.3 K	151.53 J/K/mol
135.49 K	151.95 J/K/mol
135.59 K	152.75 J/K/mol
135.69 K	153.09 J/K/mol
136 K	153.04 J/K/mol
136.56 K	152.7 J/K/mol
137.07 K	154.23 J/K/mol
137.39 K	153.55 J/K/mol
137.61 K	153.75 J/K/mol
138.05 K	154.26 J/K/mol
138.14 K	155.44 J/K/mol
138.23 K	155.31 J/K/mol
138.67 K	154.9 J/K/mol
138.85 K	156.32 J/K/mol
139.22 K	156.25 J/K/mol
139.47 K	155.53 J/K/mol
139.72 K	155.9 J/K/mol
140 K	156 J/K/mol
140.3 K	157.18 J/K/mol
140.78 K	156.94 J/K/mol
140.87 K	157.92 J/K/mol
141.16 K	157.45 J/K/mol
141.37 K	158.29 J/K/mol
141.56 K	157.55 J/K/mol
141.83 K	157.84 J/K/mol
142.01 K	159.46 J/K/mol
142.45 K	159.47 J/K/mol
142.89 K	158.79 J/K/mol
143.51 K	160.83 J/K/mol
143.52 K	160.62 J/K/mol
143.64 K	159.6 J/K/mol
143.94 K	159.82 J/K/mol
144.28 K	160.35 J/K/mol
144.6 K	161.74 J/K/mol
144.99 K	160.85 J/K/mol
145.18 K	162.59 J/K/mol
145.7 K	162.72 J/K/mol
145.73 K	161.63 J/K/mol
146.04 K	161.99 J/K/mol
146.16 K	163.13 J/K/mol
146.78 K	163.89 J/K/mol
147.09 K	162.84 J/K/mol
147.4 K	163.32 J/K/mol
147.81 K	163.57 J/K/mol
147.86 K	165.08 J/K/mol
148.14 K	163.74 J/K/mol
148.35 K	165.5 J/K/mol
148.79 K	165.6 J/K/mol
148.94 K	165.94 J/K/mol
149.18 K	164.71 J/K/mol
149.89 K	165.56 J/K/mol
150 K	165.6 J/K/mol
150.02 K	166.77 J/K/mol
150.23 K	165.8 J/K/mol
150.52 K	166.26 J/K/mol
150.77 K	167.63 J/K/mol
151.09 K	168 J/K/mol
151.27 K	167.02 J/K/mol
151.52 K	168.7 J/K/mol
151.97 K	167.63 J/K/mol
152.1 K	169 J/K/mol
152.17 K	169.13 J/K/mol
152.32 K	167.82 J/K/mol
153.24 K	170.02 J/K/mol
153.38 K	169.02 J/K/mol
153.43 K	170.11 J/K/mol
153.64 K	169.31 J/K/mol
154.06 K	169.63 J/K/mol
154.32 K	171.06 J/K/mol
154.42 K	169.98 J/K/mol
154.7 K	171.74 J/K/mol
154.77 K	171.25 J/K/mol
155.4 K	172.12 J/K/mol
155.47 K	171.07 J/K/mol
156.1 K	172.57 J/K/mol
156.15 K	171.68 J/K/mol
156.48 K	173.12 J/K/mol
156.52 K	172.03 J/K/mol
156.76 K	172.32 J/K/mol
157.44 K	173.97 J/K/mol
157.56 K	174.08 J/K/mol
157.57 K	172.98 J/K/mol
157.89 K	174.79 J/K/mol
158.24 K	173.62 J/K/mol
158.61 K	173.88 J/K/mol
158.64 K	175.11 J/K/mol
158.78 K	175.17 J/K/mol
159.66 K	174.82 J/K/mol
159.72 K	176.1 J/K/mol
159.88 K	175.23 J/K/mol
160 K	175.2 J/K/mol
160.11 K	176.48 J/K/mol
160.32 K	175.83 J/K/mol
160.71 K	175.82 J/K/mol
160.81 K	177.05 J/K/mol
161.09 K	177.82 J/K/mol
161.48 K	177.68 J/K/mol
161.75 K	176.91 J/K/mol
161.89 K	178.2 J/K/mol
162.41 K	177.56 J/K/mol
162.8 K	177.97 J/K/mol
162.82 K	178.9 J/K/mol
163 K	179.4 J/K/mol
163.01 K	178.38 J/K/mol
163.85 K	178.9 J/K/mol
164.09 K	180.26 J/K/mol
164.16 K	180.28 J/K/mol
164.29 K	180.86 J/K/mol
164.49 K	179.69 J/K/mol
164.89 K	179.88 J/K/mol
165.17 K	181.13 J/K/mol
165.49 K	181.52 J/K/mol
165.94 K	180.9 J/K/mol
166.13 K	181.26 J/K/mol
166.26 K	182.01 J/K/mol
166.58 K	181.3 J/K/mol
166.83 K	182.73 J/K/mol
166.99 K	181.72 J/K/mol
167.35 K	183.04 J/K/mol
167.49 K	183.69 J/K/mol
168.03 K	182.66 J/K/mol
168.17 K	183.76 J/K/mol
168.44 K	184.44 J/K/mol
168.67 K	183.22 J/K/mol
169.08 K	183.64 J/K/mol
169.26 K	184.18 J/K/mol
169.5 K	184.87 J/K/mol
169.53 K	185.06 J/K/mol
170 K	184.5 J/K/mol
170.13 K	184.56 J/K/mol
170.62 K	186.24 J/K/mol
170.71 K	186.66 J/K/mol
170.76 K	185.15 J/K/mol
170.84 K	186.28 J/K/mol
171.17 K	185.59 J/K/mol
171.71 K	187.47 J/K/mol
172.18 K	187.68 J/K/mol
172.38 K	187.03 J/K/mol
172.8 K	188.14 J/K/mol
172.85 K	187.26 J/K/mol
173.51 K	188.79 J/K/mol
173.89 K	188.9 J/K/mol
173.93 K	189.4 J/K/mol
174.85 K	189.91 J/K/mol
174.95 K	188.94 J/K/mol
174.98 K	190 J/K/mol
175.51 K	189.78 J/K/mol
176.07 K	191.28 J/K/mol
176.18 K	191.23 J/K/mol
177.04 K	190.61 J/K/mol
177.15 K	192.53 J/K/mol
177.16 K	191.97 J/K/mol
177.52 K	192.4 J/K/mol
178.25 K	192.97 J/K/mol
178.63 K	192.28 J/K/mol
178.85 K	193.69 J/K/mol
179.13 K	192.37 J/K/mol
179.35 K	194.03 J/K/mol
180 K	193.2 J/K/mol
180.19 K	194.75 J/K/mol
180.42 K	195.75 J/K/mol
180.47 K	195.63 J/K/mol
181.21 K	194.29 J/K/mol
181.52 K	196.05 J/K/mol
181.57 K	196.1 J/K/mol
181.75 K	194.99 J/K/mol
182.67 K	197.05 J/K/mol
182.89 K	197.45 J/K/mol
183.3 K	195.97 J/K/mol
183.65 K	198.96 J/K/mol
183.77 K	198.41 J/K/mol
184.23 K	198.67 J/K/mol
184.86 K	199.51 J/K/mol
184.87 K	197.91 J/K/mol
185.39 K	197.77 J/K/mol
185.55 K	200.51 J/K/mol
185.95 K	200.62 J/K/mol
186.89 K	201.62 J/K/mol and 202.38 J/K/mol
187.05 K	201.82 J/K/mol
187.48 K	199.99 J/K/mol
187.99 K	200.27 J/K/mol
188.14 K	203.75 J/K/mol
188.22 K	203.53 J/K/mol
189.25 K	204.46 J/K/mol
189.56 K	204.62 J/K/mol
189.57 K	201.44 J/K/mol
190 K	201.9 J/K/mol
190.12 K	206.13 J/K/mol
190.35 K	205.41 J/K/mol
190.88 K	206.97 J/K/mol
191.11 K	202.91 J/K/mol
191.45 K	206.67 J/K/mol
191.66 K	203.21 J/K/mol
192.21 K	207.95 J/K/mol
192.55 K	207.97 J/K/mol
193.37 K	209.23 J/K/mol
193.55 K	208.35 J/K/mol
193.65 K	208.94 J/K/mol
193.74 K	205.3 J/K/mol
194.23 K	206.14 J/K/mol
194.75 K	209.89 J/K/mol
194.87 K	210.1 J/K/mol
195.83 K	207.12 J/K/mol
